# Literature values as cited in patent US20080221211A1, “METHOD OF TREATMENT OF NEUROLOGICAL INJURY OR CANCER BY ADMINISTRATION OF DICHLOROACETATE” (priority 2007, published 2008).
# What was measured:
# [1] = tested on: cytochome oxidase activity in primary neurons
# cancer cell lines = settings: restored mitochondrial function and apoptosis
# tumors = settings: rat model
# [2] = in vivo
# infarct size = settings: rat pMCAo model; infusion
# [3] = tested on: infarct size after stroke; settings: rat; given within 2.25 hours of a stroke
compound,measurement,setting,value
"NC1=N[C@H](O)[C@H]2[C@H]3O[C@]4(O)O[C@@H]([C@@H](O)[C@@]2(N1)[C@@H]4O)[C@]3(O)CO [TTX, tetrodotoxin]",effect on cytochrome oxidase activity,[1],reduces cytochome oxidase activity
"O=C(O)C(Cl)Cl [DCA, dichloroacetic acid]",effect on cancer cells in vitro,cancer cell lines,killing cancer cells in vitro
same,effect on tumors in rats,tumors,shrinking the tumors in rats
same,reported adverse effect,[2],neuropathy
VEGF,effect on infarct size,infarct size,reduction of infarct size
CC(C)(C)[N+]([O-])=Cc1ccc(S(=O)(=O)[O-])cc1S(=O)(=O)[O-].[Na+].[Na+] [NXY-059],effect on infarct size,[3],reduces infarct size
